Values after ≈ are worked out from the molar mass of the structure shown.
Legend:
Type in all cases: functional
[1] = system: Candida albicans; experiment: In vitro minimum fungicidal concentration against Candida albicans (MY 1055) using a whole cell broth microdilution assay.
[2] = system: Mus musculus; experiment: In vivo anti-Candida activity was obtained in the target organ kidney assay (TOKA), a mouse model of disseminated candidiasis; 20% of animals in test group with kidneys were completely sterilized of Candida albicans at the ED99.9 dose
[3] = system: Mus musculus; experiment: In vivo anti-Candida activity was obtained in the target organ kidney assay (TOKA), a mouse model of disseminated candidiasis; 0% of animals in test group with kidneys were completely sterilized of Candida albicans at the ED99.9 dose
[4] = system: Mus musculus; experiment: In vivo anti-Candida activity was obtained in the target organ kidney assay (TOKA), a mouse model of disseminated candidiasis; 40% of animals in test group with kidneys were completely sterilized of Candida albicans at the ED99.9 dose

| SMILES | MFC [1] | also measured |
| --- | --- | --- |
| CCCc1cc(C[C@H](O)[C@@H]2NC(=O)[C@@H]3C[C@@H](O)CN3C(=O)[C@H]([C@@H](C)O)NC(=O)[C@H](NC(=O)CCCCCCCCC(C)CC(C)CC)C[C@@H](O)CNC(=O)[C@@H]3[C@@H](O)CCN3C(=O)[C@H]([C@@H](O)CC(N)=O)NC2=O)ccc1O (some centres undefined) | 0.5 µg/mL (≈ 0.465 µM) |  |
| CCC(C)CC(C)CCCCCCCCC(=O)N[C@@H]1C[C@@H](O)CNC(=O)[C@@H]2[C@@H](O)CCN2C(=O)[C@H]([C@@H](O)CC(N)=O)NC(=O)[C@H]([C@@H](O)Cc2ccc(O)c(N=[N+]=[N-])c2)NC(=O)[C@@H]2C[C@@H](O)CN2C(=O)[C@H]([C@@H](C)O)NC1=O (some centres undefined) | 4 µg/mL (≈ 3.72 µM) |  |
| CCC(C)CC(C)CCCCCCCCC(=O)N[C@@H]1C[C@@H](O)CNC(=O)[C@@H]2[C@@H](O)CCN2C(=O)[C@H]([C@@H](O)CC(N)=O)NC(=O)[C@H]([C@@H](O)Cc2ccc(O)c([N+](=O)[O-])c2)NC(=O)[C@@H]2C[C@@H](O)CN2C(=O)[C@H]([C@@H](C)O)NC1=O (some centres undefined) | 2 µg/mL (≈ 1.85 µM) |  |
| CCC(C)CC(C)CCCCCCCCC(=O)N[C@@H]1C[C@@H](O)[C@@H](O)NC(=O)[C@@H]2[C@@H](O)CCN2C(=O)[C@H]([C@@H](O)CC(N)=O)NC(=O)[C@H]([C@@H](O)[C@H](O)c2ccc(O)cc2)NC(=O)[C@@H]2C[C@@H](O)CN2C(=O)[C@H]([C@@H](C)O)NC1=O (some centres undefined) | 0.25 µg/mL (≈ 0.235 µM) | ED99.9 [2]: 6 mg/kg |
| CCC(C)CC(C)CCCCCCCCC(=O)N[C@@H]1C[C@@H](O)CNC(=O)[C@@H]2[C@@H](O)CCN2C(=O)[C@H]([C@@H](O)CC(N)=O)NC(=O)[C@H]([C@@H](O)Cc2ccc(O)c(I)c2)NC(=O)[C@@H]2C[C@@H](O)CN2C(=O)[C@H]([C@@H](C)O)NC1=O (some centres undefined) | 0.5 µg/mL (≈ 0.431 µM) |  |
| C=Cc1cc(C[C@H](O)[C@@H]2NC(=O)[C@@H]3C[C@@H](O)CN3C(=O)[C@H]([C@@H](C)O)NC(=O)[C@H](NC(=O)CCCCCCCCC(C)CC(C)CC)C[C@@H](O)CNC(=O)[C@@H]3[C@@H](O)CCN3C(=O)[C@H]([C@@H](O)CC(N)=O)NC2=O)ccc1O (some centres undefined) | 1 µg/mL (≈ 0.944 µM) |  |
| CCC(C)CC(C)CCCCCCCCC(=O)N[C@@H]1C[C@@H](O)CNC(=O)[C@@H]2[C@@H](O)CCN2C(=O)[C@H]([C@@H](O)CC(N)=O)NC(=O)[C@H]([C@@H](O)Cc2ccc3c(c2)CC(O)O3)NC(=O)[C@@H]2C[C@@H](O)CN2C(=O)[C@H]([C@@H](C)O)NC1=O (some centres undefined) | 1 µg/mL (≈ 0.93 µM) |  |
| CCC(C)CC(C)CCCCCCCCC(=O)N[C@@H]1C[C@@H](O)[C@@H](O)NC(=O)[C@@H]2[C@@H](O)CCN2C(=O)[C@H]([C@@H](O)CC(N)=O)NC(=O)[C@H]([C@@H](O)[C@H](O)c2cc(I)c(O)c(I)c2)NC(=O)[C@@H]2C[C@@H](O)CN2C(=O)[C@H]([C@@H](C)O)NC1=O (some centres undefined) | 8 µg/mL (≈ 6.07 µM) |  |
| CCC(C)CC(C)CCCCCCCCC(=O)N[C@@H]1C[C@@H](O)[C@@H](O)NC(=O)[C@@H]2[C@@H](O)CCN2C(=O)[C@H]([C@@H](O)CC(N)=O)NC(=O)[C@H]([C@@H](O)[C@H](O)c2ccc(O)c(NC(=O)CCN)c2)NC(=O)[C@@H]2C[C@@H](O)CN2C(=O)[C@H]([C@@H](C)O)NC1=O (some centres undefined) | 0.25 µg/mL (≈ 0.217 µM) | ED99.9 [3]: 0.78 mg/kg |
| CCC(C)CC(C)CCCCCCCCC(=O)N[C@@H]1C[C@@H](O)CNC(=O)[C@@H]2[C@@H](O)CCN2C(=O)[C@H]([C@@H](O)CC(N)=O)NC(=O)[C@H]([C@@H](O)Cc2ccc(O)c(O)c2)NC(=O)[C@@H]2C[C@@H](O)CN2C(=O)[C@H]([C@@H](C)O)NC1=O (some centres undefined) | 0.5 µg/mL (≈ 0.477 µM) |  |
| CCC(C)CC(C)CCCCCCCCC(=O)N[C@@H]1C[C@@H](O)[C@@H](O)NC(=O)[C@@H]2[C@@H](O)CCN2C(=O)[C@H]([C@@H](O)CC(N)=O)NC(=O)[C@H]([C@@H](O)[C@H](O)c2ccc(O)c(NC(C)=O)c2)NC(=O)[C@@H]2C[C@@H](O)CN2C(=O)[C@H]([C@@H](C)O)NC1=O (some centres undefined) | 1 µg/mL (≈ 0.891 µM) |  |
| CCC(C)CC(C)CCCCCCCCC(=O)N[C@@H]1C[C@@H](O)[C@@H](O)NC(=O)[C@@H]2[C@@H](O)CCN2C(=O)[C@H]([C@@H](O)CC(N)=O)NC(=O)[C@H]([C@@H](O)[C@H](O)c2ccc(O)c(N=[N+]=[N-])c2)NC(=O)[C@@H]2C[C@@H](O)CN2C(=O)[C@H]([C@@H](C)O)NC1=O (some centres undefined) | 0.5 µg/mL (≈ 0.452 µM) |  |
| CCC(C)CC(C)CCCCCCCCC(=O)N[C@@H]1C[C@@H](O)[C@@H](O)NC(=O)[C@@H]2[C@@H](O)CCN2C(=O)[C@H]([C@@H](O)CC(N)=O)NC(=O)[C@H]([C@@H](O)[C@H](O)c2ccc(O)c(N)c2)NC(=O)[C@@H]2C[C@@H](O)CN2C(=O)[C@H]([C@@H](C)O)NC1=O (some centres undefined) | 2 µg/mL (≈ 1.85 µM) |  |
| CCC(C)CC(C)CCCCCCCCC(=O)N[C@@H]1C[C@@H](O)CNC(=O)[C@@H]2[C@@H](O)CCN2C(=O)[C@H]([C@@H](O)CC(N)=O)NC(=O)[C@H]([C@@H](O)Cc2ccc(O)c(C(=O)OC)c2)NC(=O)[C@@H]2C[C@@H](O)CN2C(=O)[C@H]([C@@H](C)O)NC1=O (some centres undefined) | 2 µg/mL (≈ 1.83 µM) |  |
| CCC(C)CC(C)CCCCCCCCC(=O)N[C@@H]1C[C@@H](O)[C@@H](O)NC(=O)[C@@H]2[C@@H](O)CCN2C(=O)[C@H]([C@@H](O)CC(N)=O)NC(=O)[C@H]([C@@H](O)[C@H](O)c2ccc(O)c([N+](=O)[O-])c2)NC(=O)[C@@H]2C[C@@H](O)CN2C(=O)[C@H]([C@@H](C)O)NC1=O (some centres undefined) | 8 µg/mL (≈ 7.21 µM) |  |
| CCC(C)CC(C)CCCCCCCCC(=O)N[C@@H]1C[C@@H](O)[C@@H](O)NC(=O)[C@@H]2[C@@H](O)CCN2C(=O)[C@H]([C@@H](O)CC(N)=O)NC(=O)[C@H]([C@@H](O)[C@H](O)c2ccc(O)c(I)c2)NC(=O)[C@@H]2C[C@@H](O)CN2C(=O)[C@H]([C@@H](C)O)NC1=O (some centres undefined) | 4 µg/mL (≈ 3.36 µM) |  |
| CCC(C)CC(C)CCCCCCCCC(=O)N[C@@H]1C[C@@H](O)[C@@H](O)NC(=O)[C@@H]2[C@@H](O)CCN2C(=O)[C@H]([C@@H](O)CC(N)=O)NC(=O)[C@H]([C@@H](O)[C@H](O)c2ccc(O)c(NC(=O)CCC(=O)O)c2)NC(=O)[C@@H]2C[C@@H](O)CN2C(=O)[C@H]([C@@H](C)O)NC1=O (some centres undefined) | 0.25 µg/mL (≈ 0.212 µM) | ED99.9 [3]: 6 mg/kg |
| CCc1cc(C[C@H](O)[C@@H]2NC(=O)[C@@H]3C[C@@H](O)CN3C(=O)[C@H]([C@@H](C)O)NC(=O)[C@H](NC(=O)CCCCCCCCC(C)CC(C)CC)C[C@@H](O)CNC(=O)[C@@H]3[C@@H](O)CCN3C(=O)[C@H]([C@@H](O)CC(N)=O)NC2=O)ccc1O (some centres undefined) | 1 µg/mL (≈ 0.942 µM) |  |
| CCC(C)CC(C)CCCCCCCCC(=O)N[C@@H]1C[C@@H](O)CNC(=O)[C@@H]2[C@@H](O)CCN2C(=O)[C@H]([C@@H](O)CC(N)=O)NC(=O)[C@H]([C@@H](O)Cc2ccc(O)cc2)NC(=O)[C@@H]2C[C@@H](O)CN2C(=O)[C@H]([C@@H](C)O)NC1=O (some centres undefined) | 0.25 µg/mL (≈ 0.242 µM) |  |
| CCC(C)CC(C)CCCCCCCCC(=O)N[C@@H]1C[C@@H](O)CNC(=O)[C@@H]2[C@@H](O)CCN2C(=O)[C@H]([C@@H](O)CC(N)=O)NC(=O)[C@H]([C@@H](O)Cc2ccc(O)c(C=O)c2)NC(=O)[C@@H]2C[C@@H](O)CN2C(=O)[C@H]([C@@H](C)O)NC1=O (some centres undefined) | 1 µg/mL (≈ 0.942 µM) |  |
| CCC(C)CC(C)CCCCCCCCC(=O)N[C@@H]1C[C@@H](O)CNC(=O)[C@@H]2[C@@H](O)CCN2C(=O)[C@H]([C@@H](O)CC(N)=O)NC(=O)[C@H]([C@@H](O)Cc2ccc(O)c(N)c2)NC(=O)[C@@H]2C[C@@H](O)CN2C(=O)[C@H]([C@@H](C)O)NC1=O (some centres undefined) | 2 µg/mL (≈ 1.91 µM) |  |
| C=CCc1cc(C[C@H](O)[C@@H]2NC(=O)[C@@H]3C[C@@H](O)CN3C(=O)[C@H]([C@@H](C)O)NC(=O)[C@H](NC(=O)CCCCCCCCC(C)CC(C)CC)C[C@@H](O)CNC(=O)[C@@H]3[C@@H](O)CCN3C(=O)[C@H]([C@@H](O)CC(N)=O)NC2=O)ccc1O (some centres undefined) | 1 µg/mL (≈ 0.932 µM) |  |
| CCC(C)CC(C)CCCCCCCCC(=O)N[C@@H]1C[C@@H](O)CNC(=O)[C@@H]2[C@@H](O)CCN2C(=O)[C@H]([C@@H](O)CC(N)=O)NC(=O)[C@H]([C@@H](O)Cc2ccc(O)c(CCO)c2)NC(=O)[C@@H]2C[C@@H](O)CN2C(=O)[C@H]([C@@H](C)O)NC1=O (some centres undefined) | 0.5 µg/mL (≈ 0.464 µM) |  |
| CCC(C)CC(C)CCCCCCCCC(=O)N[C@@H]1C[C@@H](O)[C@@H](O)NC(=O)[C@@H]2[C@@H](O)CCN2C(=O)[C@H]([C@@H](O)CC(N)=O)NC(=O)[C@H]([C@@H](O)[C@H](O)c2ccc(O)c(NC(=O)CN)c2)NC(=O)[C@@H]2C[C@@H](O)CN2C(=O)[C@H]([C@@H](C)O)NC1=O (some centres undefined) | 0.25 µg/mL (≈ 0.22 µM) | ED99.9 [4]: 0.75 mg/kg |
| CCC(C)CC(C)CCCCCCCCC(=O)N[C@@H]1C[C@@H](O)[C@@H](O)NC(=O)[C@@H]2[C@@H](O)CCN2C(=O)[C@H]([C@@H](O)CC(N)=O)NC(=O)[C@H]([C@@H](O)[C@H](O)c2ccc(O)c(NC(=O)CS)c2)NC(=O)[C@@H]2C[C@@H](O)CN2C(=O)[C@H]([C@@H](C)O)NC1=O (some centres undefined) | 2 µg/mL (≈ 1.73 µM) |  |
